Consider 3 molecules from patent publication US8937183B2, “Detection of hydrogen peroxide” (Promega Corporation, priority 2011, dated 2015).

One experiment deals with Jurkat cells. In words: Detection of reactive oxygen generation in cells treated with menadione or 4-aminobiphenyl, Jurkat. It is filed as cell-based. Particulars: for averaged bioluminescence: 60 minutes 37° C. On the procedure: (§1) In this example, various compounds shown to react with hydrogen peroxide were incubated with cells treated with menadione and 4-aminobiphenyl, two compounds that can generate reactive oxygen species (ROS). Menadione causes the direct production of reactive oxygen within the cell and is a very strong inducer of a ROS effect (Sun, J S et. al. Cell Mol Life Sci (1997) vol 53 pp 967-76). 4-aminobiphenyl is believed to require metabolic conversion to a quinine-like structure before being able to induce the formation of a ROS (Makena, P and Chung, K T. Environ. Mol. Mutagen. (2007), vol 48, pp 404-413).
(§2) A 40 mM solution of 4-aminobiphenyl (Sigma A2898-1g) was made by dissolving 2.5 mg in 375 μl of DMSO (Fluka) to create a 40 mM solution. 50 μl of 4 mg/ml PBI 4458 in DMSO was diluted to 1 ml with HBSS buffer (Invitrogen), and 100 μl added to wells A1 and A2 of a microtiter plate. A 10 μl sample of 40 mM 4-aminobiphenyl was mixed with 190 μl of the remaining PBI 4458 in HBSS, and 60 μl added to wells B1 and B2 and 30 μl to wells C1 and C2. A 10 μl sample of 40 mM menadione in DMSO was mixed with 190 μl of the remaining PBI 4458 in HBSS, and 60 μl added to wells D1 and D2 and 30 μl to E1 and E2. The volume in wells B1 to E2 was then adjusted to 100 μl by addition of remaining PBI 4458 in HBSS.
(§3) 50 μl of 4 mg/ml PBI 4480 in DMSO was diluted to 1 ml with HBSS buffer, and 100 μl placed in wells A3 and A4 of the microtiter plate. A 10 μl sample of 40 mM 4 aminobiphenyl was mixed with 190 μl of the remaining PBI 4480 in HBSS, and 60 μl added to wells B3 and B4 and 30 μl to wells C3 and C4. A 10 μl sample of 40 mM menadione in DMSO was mixed with 190 μl of the remaining PBI 4480 in HBSS, and 60 μl added to wells D3 and D4 and 30 μl added to wells E3 and E4. The volume in wells B3 to E4 was then adjusted to 100 μl by addition of left over PBI 4480 in HBSS.
(§4) 50 μl of 4 mg/ml PBI 3048 in DMSO was diluted to 1 ml with HBSS, and 100 μl added to wells A5 and A6 of the microtiter plate. A 10 μl sample of 40 mM 4 aminobiphenyl was mixed with 190 μl of the remaining PBI 3048 in HBSS, and 60 μl added to wells B5 and B6 and 30 μl added to wells C5 and C6. A 10 μl sample of 40 mM menadione in DMSO was mixed with 190 μl of the remaining PBI 3048 in HBSS, and 60 μl added to wells D5 and D6 and 30 μl added to wells E5 and E6. The volume in wells B5 to E6 was then adjusted to 100 μl by addition of the remaining PBI 3048 in HBSS.
(§5) Two cell culture plates were seeded with cells resuspended in HBSS. One plate contained 20,000 Jurkat cells/well in wells A1-H6. The other plate contained 20,000 HepG2 cells/well in wells A1-H6. Both plates were incubated overnight in DMEM with 10% fetal bovine serum (FBS). The media from the HepG2 cells was removed, discarded, and replaced with 50 μl of HBSS. A 50 μl sample of wells A1-H6 from the plate with the various PBI compounds was transferred to the corresponding wells in the two cell culture plates, and incubated for 60 minutes in a 37° C., 5% CO2 incubator.
(§6) 50 μl of LDR (Example 23) and 25 μl of 1 mM D-cysteine in 100 mM HEPES buffer, pH 7.5 was added to all wells of a new luminometer plate. After incubation, a 25 μl sample of wells A1-H6 containing Jurkat cells was added to wells A1-H6 of the new luminometer plate, and a 25 μl sample of wells A1-H6 containing HepG2 cells was added to wells A7-H12 of the new luminometer plate. The plate was incubated at room temperature for 15 minutes, and bioluminescence detected on a GloMax® luminometer.
(§7) The bioluminescence from the duplicate samples was averaged and compared to the values of the cells in A row (Table 4).

In another experiment the test system is HepG2 cells. As to the kind of experiment: Detection of reactive oxygen generation in cells treated with menadione or 4-aminobiphenyl, HepG2. To be noted: for response of signal to menadione or 4-aminobiphenyl (in words): HepG2; for averaged bioluminescence: 60 minutes 37° C. In kind it is cell-based. As for the experimental part: as §1, §2, §3, §4, §5, §6, §7

As for `CC1(C)OB(/C=C/COc2ccc3nc(C#N)sc3c2)OC1(C)C` [PBI 4458, (E)-6-((3-(4,4,5,5-tetramethyl-1,3,2-dioxaborolan-2-yl)allyl)oxy)-benzo[d]thiazole-2-carbonitrile], the “response of signal to menadione or 4-aminobiphenyl (in words)” value (from here on “response of signal”) in the experiment with Jurkat cells and in the experiment on HepG2 cells was “above those for the cells that were not given any effector” throughout. Besides, the averaged bioluminescence with Jurkat cells (300 μM 4ABP) is 213,059; in the experiment on Jurkat cells (300 μM Menadione) it was 742,717; in the experiment with Jurkat cells (600 μM 4ABP) it was 195,096; with Jurkat cells (600 μM Menadione), 895,269; in the experiment on Jurkat cells (No Effector) it was 174,206; in the experiment on HepG2 cells (HepG2, 300 μM 4ABP) it was 163,031. The averaged bioluminescence is reported as 622,230 in the experiment on HepG2 cells (HepG2, 300 μM Menadione); 169,952 in the experiment on HepG2 cells (HepG2, 600 μM 4ABP); 728,404 with HepG2 cells (HepG2, 600 μM Menadione); 117,111 in the experiment on HepG2 cells (HepG2, No Effector).

Regarding `CC1(C)OB(c2ccc(COc3ccc4nc(C#N)sc4c3)c3ccccc23)OC1(C)C` [PBI 4480, 6-((4-(4,4,5,5-tetramethyl-1,3,2-dioxaborolan-2-yl)naphthalen-1-yl)methoxy)benzo[d]thiazole-2-carbonitrile], the “response of signal” value in the experiment on Jurkat cells and in the experiment with HepG2 cells was “do not show as clear of a response” each time. In addition, the averaged bioluminescence is 29,810 in the experiment on Jurkat cells (300 μM 4ABP); 29,806 in the experiment with Jurkat cells (300 μM Menadione); 29,277 in the experiment on Jurkat cells (600 μM 4ABP); 27,535 in the experiment with Jurkat cells (600 μM Menadione); 34,646 in the experiment on Jurkat cells (No Effector); 20,574 in the experiment on HepG2 cells (HepG2, 300 μM 4ABP). Also, the averaged bioluminescence with HepG2 cells (HepG2, 300 μM Menadione) is recorded as 20,788; in the experiment on HepG2 cells (HepG2, 600 μM 4ABP) it was 21,023; in the experiment on HepG2 cells (HepG2, 600 μM Menadione) it was 20,509; in the experiment with HepG2 cells (HepG2, No Effector), 19,627.

With `O=C(O)C1CSC(c2nc3ccc(OCc4ccc(B(O)O)cc4)cc3s2)=N1` (stereo not drawn) [PBI 3048], the “response of signal” value in the experiment with Jurkat cells and in the experiment on HepG2 cells was “do not show as clear of a response” throughout. Also, the averaged bioluminescence with Jurkat cells (300 μM 4ABP) is listed as 363,182; with Jurkat cells (300 μM Menadione), 434,344; in the experiment with Jurkat cells (600 μM 4ABP) it was 366,188; in the experiment on Jurkat cells (600 μM Menadione), 403,013; with Jurkat cells (No Effector) it was 413,753; in the experiment on HepG2 cells (HepG2, 300 μM 4ABP), 364,353. Moreover, the averaged bioluminescence is given as 426,802 in the experiment with HepG2 cells (HepG2, 300 μM Menadione); 383,471 in the experiment with HepG2 cells (HepG2, 600 μM 4ABP); 408,177 with HepG2 cells (HepG2, 600 μM Menadione); 407,917 in the experiment with HepG2 cells (HepG2, No Effector).
